# From patent US20230338391A1, “TREATMENT FOR DEPRESSION” (TAKEDA PHARMACEUTICAL COMPANY LIMITED, priority 2020, published 2023)
# Assay: 13-week NHP GLP toxicity study: toxicokinetics
# Assay type: in vivo, Monkey (Macaca fascicularis)
# Details: cynomolgus monkey, plasma, oral; range across all TK sampling days (1st, 29th, 90th dosing)
# Procedure: Blood samples (a target of 0.5 mL each, Na-heparin tubes) were collected from all animals at the following timepoints: • Phase 1: at 4 hours after dosing. • Phase 2: Plasma concentrations of COMPOUND A and its metabolites were determined for all dose groups after the 1st, the 29th dosing and the 90th dosing. Blood collection occurred in each animal in all groups before dosing (at the 29th and 90th dose only) and 1, 2, 4, 8, and 24 hours after dosing. Blood samples were collected into Na-heparin tubes via the implanted catheter or from the jugular, cephalic or femoral vein by venipuncture; tubes were kept on wet ice pending centrifugation. The blood samples were centrifuged at 5400×g for 5 minutes under cooling conditions (set to 4° C.) to obtain the plasma. The plasma was divided into duplicate samples (at least 100 μL each) and was kept on dry ice and stored in a freezer set to −20° C. until shipment. Back-up samples (set 2 of 2) were stored separately from set 1 of 2.
# Non-compartmental toxicokinetic analysis was performed by the subcontractor on the plasma concentration data for COMPOUND A, and its metabolites using validated WinNonlin software. The TK parameters (tmax, Cmax, t1/2, MRT24, MRTinf, AUC24 and AUCinf) were calculated for all animals except for the control animals.
smiles,measurement,value
"CC1=CN2CCS(=O)(=O)N=C2C(c2ccc(OC3CCCCC3)cc2)=N1 [COMPOUND A, 9-[4-(Cyclohexyloxy)phenyl]-7-methyl-3,4-dihydropyrazino[2,1-c][1,2,4]thiadiazine 2,2-dioxide]",Tmax,2 to 15 h
